Experimental findings from US20160311791A1, “NOVEL TRICYCLIC CALCIUM SENSING RECEPTOR ANTOGONISTS FOR THE TREATMENT OF OSTEOPOSOSIS” (MERCK SHARP & DOHME CORP., priority 2013, published 2016) are described below.

Where two headings read alike, the source gives them in different places.

In series [1] the test system is PTH release. Kind of series: In vivo pharmacodynamic effects: PTH (Rat Intact PTH 1-84 ELISA). The note with it: oral gavage. On the procedure:
(§1) Procedures for In Vivo Pharmacodynamic Effects
(§2) The objective of these studies was to assess the effect of compounds on stimulating PTH release and increasing calcium secretion in the rat. Male Sprague-Dawley rats (3-4 months old) were equipped with jugular vein cannulae (JVC) by surgical procedure. The rats were given the compound by oral gavage. Blood was sampled from the JVC at 15 minutes, 30 minutes, 60 minutes, 120 minutes, 240 minutes, 420 minutes, and 24 hrs post compound administration. Plasma was separated and used for a PTH ELISA assay and a calcium concentration assay. After the last blood sampling, the rats were sacrificed under anesthesia by inhalation of CO2. All procedures were conducted in compliance with the Animal Welfare Act, the Guide for the Care and Use of Laboratory Animals and the recommendations of the AVMA Panel on Euthanasia.
(§3) Rat plasma samples were used for measuring serum PTH levels: The Rat Intact PTH 1-84 ELISA kit (Immutopics Cat#60-2500) was used according to the manufacturer's instructions. Total serum calcium determination was made using a calcium arsenazo III reagent (Fisher Scientific Cat # Pointe Scientific Calcium (Arsenazo III) Reagents; Mfr. No.: C7529-500; Qty.: 500 mL. Mfr. No.: C7529-500, Part #23666172) according to the manufacturer's instructions. For these experiments, 2 μl of sample was added to 198 μl of reagent, mixed, and read at 650 nm.

Series [2] relates to serum calcium. Kind of series: In vivo pharmacodynamic effects: total serum calcium (arsenazo III). The note with it: rat, oral gavage. Here is the method: as §1, §2, §3
Series [3] can be described thus: Pharmacokinetic evaluation in rats. The series is classed as in vivo, rat. The settings on record: for clearance / Cmax / bioavailability / half-life: rat, plasma, dose and route not given; for clearance: read-out: Clp (plasma clearance); for Cmax: read-out: Cmax (maximum observed plasma concentration); for bioavailability: read-out: F % (bioavailability); for half-life: read-out: t1/2 (plasma half-life) (converted).

Series [4] deals with T1, human CaSR (Homo sapiens, UniProt P41180).
T1 sequence (P41180 20-1078): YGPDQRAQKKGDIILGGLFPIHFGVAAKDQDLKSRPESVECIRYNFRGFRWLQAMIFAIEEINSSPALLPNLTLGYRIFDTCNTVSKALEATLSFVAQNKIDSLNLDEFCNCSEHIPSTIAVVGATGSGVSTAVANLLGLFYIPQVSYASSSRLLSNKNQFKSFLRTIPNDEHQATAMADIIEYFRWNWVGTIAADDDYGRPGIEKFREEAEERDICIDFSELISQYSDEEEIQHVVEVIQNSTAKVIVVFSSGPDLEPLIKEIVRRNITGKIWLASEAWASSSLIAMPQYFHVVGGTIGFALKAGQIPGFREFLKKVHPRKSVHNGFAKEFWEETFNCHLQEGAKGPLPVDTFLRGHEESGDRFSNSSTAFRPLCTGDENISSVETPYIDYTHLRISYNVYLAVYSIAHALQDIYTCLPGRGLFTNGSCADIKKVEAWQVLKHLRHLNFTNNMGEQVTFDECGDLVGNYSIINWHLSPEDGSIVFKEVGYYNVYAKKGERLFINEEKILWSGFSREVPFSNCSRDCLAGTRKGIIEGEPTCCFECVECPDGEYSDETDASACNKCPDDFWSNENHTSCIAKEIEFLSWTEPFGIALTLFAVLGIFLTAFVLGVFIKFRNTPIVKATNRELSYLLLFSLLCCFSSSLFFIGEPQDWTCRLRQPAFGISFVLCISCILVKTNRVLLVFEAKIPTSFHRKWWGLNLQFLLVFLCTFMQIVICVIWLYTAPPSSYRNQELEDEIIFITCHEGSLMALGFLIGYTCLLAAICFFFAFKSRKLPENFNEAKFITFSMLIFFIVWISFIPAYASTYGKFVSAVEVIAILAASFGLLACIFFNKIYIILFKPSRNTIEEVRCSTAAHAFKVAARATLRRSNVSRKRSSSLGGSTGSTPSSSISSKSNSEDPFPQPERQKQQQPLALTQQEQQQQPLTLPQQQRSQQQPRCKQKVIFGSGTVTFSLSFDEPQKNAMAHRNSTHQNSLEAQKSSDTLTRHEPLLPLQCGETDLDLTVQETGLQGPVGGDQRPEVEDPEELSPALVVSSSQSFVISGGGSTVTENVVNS
The series can be described thus: CaSR FLIPR assay (calcilytic activity). Set-up: expressed in transfected cells. Type of series: cell-based. In short, it runs like this:
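Calcium flux in HEK293 cells stably expressing human CaSR, loaded with Calcium 4 dye for 1 h at 37° C, read on FLIPR. Compounds in 0.5% DMSO (10-point, 3-fold series) added first, then CaCl2 at 1 mM final. Buffer: 20 mM HEPES pH 7.4, HBSS, 0.4 mM CaCl2, Mg salts.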

The mark [5] stands for this setting: HEK293 cells stably expressing human recombinant CaSR, 1 mM CaCl2 agonist, Tables 1-24, read-out: FLIPR ASSAY IC50.
Where [6] appears, read: summary table, read-out: FLIPR CaSR (IC50).

The term clearance denotes a measure of how efficiently the substance is removed, as volume per time. Usually bioavailability stands for dose-corrected exposure relative to a reference, in per cent. As a reminder, the IC50 is the concentration that inhibits the measured activity by half. Turning to `C[C@@H](OC[C@H](O)CNC(C)(C)Cc1ccc2ccccc2c1)c1cccc2c1O[C@@H]1[C@@H](C(=O)O)[C@H]21` [Example 1-1], the “Maximum Change in PTH (fold)” value in series [1] (at 30 mpk) is reported as 5.8 (at fold. Further, the “Maximum Increase in Calcium (mg/dl)” value in series [2] (at 30 mpk) was 1.5 (at mg/dl. Moreover, in series [3], the “half-lives in rats” value is recorded as “short half-lives”, the “tmax” value is given as “less than an hour”, the clearance is 11 mL/min/kg and the Cmax came out at 2400 nM. Further, in series [3], the bioavailability was found to be 24% and the half-life was 1.7 h. In addition, in series [4] (setting [5]), the 50% inhibitory concentration (IC50) was 26 nM. Moreover, in series [4] (setting [6]), the IC50 is 22 nM.
For the compound `C[C@@H](OC[C@H](O)CNC(C)(C)Cc1ccc2ccccc2c1)c1cccc2c1[C@@H]1[C@H](O2)[C@H]1C(=O)O` [Example 5-1], the “Maximum Change in PTH (fold)” value in series [1] (at 10 mpk) is 8 (at fold. Also, the “Maximum Increase in Calcium (mg/dl)” value in series [2] (at 10 mpk) is given as 2.3 (at mg/dl. For the same compound, in series [3], the “half-lives in rats” value is reported as “short half-lives”, the “tmax” value is given as “less than an hour”, the clearance worked out at 52.5 mL/min/kg and the Cmax was 690 nM. For the same compound, in series [3], the bioavailability worked out at 7% and the half-life was 1.3 h. Also, the IC50 in series [4] (setting [5]) amounted to 9 nM. For the same compound, in series [4] (setting [6]), the 50% inhibitory concentration (IC50) was found to be 9 nM.
In the case of `CSc1ccc(CC(C)(C)NC[C@@H](O)CO[C@H](C)c2ccc(C)c3c2C2[C@H](O3)[C@H]2C(=O)O)cc1F` (stereo partly drawn) [Example 8-24], the “Maximum Change in PTH (fold)” value in series [1] (at 30 mpk) is listed as 4 (at fold. For the same compound, in series [2] (at 30 mpk), the “Maximum Increase in Calcium (mg/dl)” value is 1 (at mg/dl. In series [3], the “half-lives in rats” value is “short half-lives”, the “tmax” value is reported as “less than an hour”, the clearance is 40 mL/min/kg and the Cmax was found to be 160 nM. In series [3], the bioavailability is 7% and the half-life was 1.8 h. The IC50 in series [4] (setting [5]) was 21 nM. Besides, the IC50 in series [4] (setting [6]) was 20 nM.
